Test results reported in patent US4734275A, “Anti-curare agents” (priority 1986, dated 1988).
Read-outs that look alike come from different tables or passages of the source.

How the values were obtained:
[1] = test system: sciatic nerve-tibialis anterior muscle preparations; assay: Antagonism of relaxant-induced neuromuscular block in vivo, rat sciatic nerve-tibialis anterior muscle; parameters: species or system male Sprague-Dawley rats; conditions: for Relative Molar Potency, In Vivo: 4-Aminopyridine = 1.0; for ED 50 of Antagonists, In Vivo / ED50: i.v., means + SEM of 4 experiments, dose raising twitch tension to 50% of control in >90% steady state block; for ED50: Rattus norvegicus, iv, read-out: ED 50 of Antagonists, In Vivo
Excerpt: (§1) In in vitro tests to determine neuromuscular potency, phrenic nerve-hemidiaphragm preparations from male Sprague-Dawley rats were suspended in modified Krebs solution. In vivo experiments focused on the sciatic nerve-tibialis anterior muscle preparations in male Sprague-Dawleyrats. In each case, stimulation of nerves was accomplished via bipolar platinum electrodes, with supramaximal impulses of 0.2 msec duration at 0.1 HZ, and the isometric twitches were continuously recorded. Greater than 90 % steady state neuromuscular block was achieved either by addition of appropriate concentrations (in vitro) or continuous i.v. infusions (in vivo) of either d-tubocurarine or pancuronium. Antagonism of the induced neuromuscular block was accomplished by the addition of increments of 4-AP, 3,4-DAP, LF-10 or LF-14.
(§2) **The concentration in vitro or the i.v. dose that will increase twitch
(§3) tension to 50% of control in the presence of the concentration or dose of
(§4) muscle relaxant that caused a >90% steady state block.

[2] = test system: central nervous system; assay: Central nervous system stimulatory effects: pentobarbital-induced loss of righting reflex (LRR); type: in vivo, male Sprague-Dawley rats; conditions: for Loss of righting reflex, Onset / Loss of righting reflex, Duration: with 35 mg/kg pentobarbital s.c., LF-10, LF-14 1.1 mg/kg, 4-AP, 3,4-DAP 1.5 mg/kg, mean; for Loss of righting reflex, Onset: control 11.4; for Loss of righting reflex, Duration: control 71.9; for effect on pentobarbital induced LRR / barbiturate CNS effects (in words): with pentobarbital 35 mg/kg s.c.
Procedure: Tests were conducted to determine the stimulatory effects of the compounds of the present invention upon the central nervous system. Male Sprague-Dawley rats were injected subcutaneously with 35 mg/kg of pentobarbital alone, or together with 1.1 mg/kg of LF-10 or LF-14, or 1.5 mg/kg of 4-AP or 3,4-DAP (Foldes, et al., Anesthesiology 57:A-273, 1982). The time of onset and duration of the loss of righting reflex (LRR) was observed.

[3] = test system: phrenic nerve-hemidiaphragm preparations; assay: Antagonism of relaxant-induced neuromuscular block in vitro, rat phrenic nerve-hemidiaphragm; type: cell-based, male Sprague-Dawley rats; parameters: ED 50 of Antagonists, In Vitro: unit not given here; conditions: for Relative Molar Potency, In Vitro: 4-Aminopyridine = 1.0; for ED 50 of Antagonists, In Vitro: means + SEM of 4 experiments, concentration raising twitch tension to 50% of control in >90% steady state block
Excerpt: as §1, §2, §3, §4

[4] = background; Marshall 1982; cited from earlier work
[5] = test system: anticholinesterase activity; conditions: background; cited from earlier work
[6] = test system: neuromuscular blocks; conditions: background; Bowman and Savage 1981; Agoston et al. 1978; cited from earlier work
[7] = molar basis, nondepolarizing muscle relaxants
[8] = neuromuscular blocks induced by curare

| Compound | Relative Molar Potency, In Vivo ([1]; muscle relaxant Pancuronium) | Relative Molar Potency, In Vivo ([1]; muscle relaxant d-Tubocurarine) | Loss of righting reflex, Onset [2] | Loss of righting reflex, Duration [2] | effect on pentobarbital induced LRR / barbiturate CNS effects (in words) [2] | Relative Molar Potency, In Vitro ([3]; muscle relaxant Pancuronium) | Relative Molar Potency, In Vitro ([3]; muscle relaxant d-Tubocurarine) | ED50 ([1]; muscle relaxant Pancuronium) | ED50 ([1]; muscle relaxant d-Tubocurarine) | other results |
| --- | --- | --- | --- | --- | --- | --- | --- | --- | --- | --- |
| 1,1-dimethyl-(3,4-pyridyl)-urea [LF-10] | 2.3 | 7.5 | 14.8 min | 63.7 min | some effect on shortening the duration of LRR | 3.4 | 4.3 |  |  | ED 50 of Antagonists, In Vivo ([1]; muscle relaxant Pancuronium): 0.13 + 0.00 mg/Kg; ED 50 of Antagonists, In Vivo ([1]; muscle relaxant d-Tubocurarine): 0.09 + 0.00 mg/Kg; ED 50 of Antagonists, In Vitro ([3]; muscle relaxant Pancuronium): 0.5; ED 50 of Antagonists, In Vitro ([3]; muscle relaxant d-Tubocurarine): 0.4 |
| Nc1ccncc1N [3,4-Diaminopyridine, 3,4-diaminopyridine, reference compound] | 0.8 | 1.6 | 13.3 min | 78.9 min |  | 2.7 | 2.1 | 0.18 mg/kg | 0.12 mg/kg |  |
| Nc1ccncc1 [4-Aminopyridine, 4-aminopyridine, reference compound] |  |  | 15.2 min | 42.0 min | significantly (p<0.001) reduce the central nervous system effects of barbiturates |  |  | 0.13 mg/kg | 0.17 mg/kg | undesirable side effects (in words) [4]: elevated blood pressure, anxiety, insomnia, and a level of central nervous system stimulation which may manifest itself ultimately in convulsions; anticholinesterase activity (in words) [5]: no anticholinesterase activity; reversal of muscle relaxants and antagonism of other neuromuscular blocks (in words) [6]: not only reverse the side effects of clinically used muscule relaxants, but also antagonize the effects of the other neuromuscular blocks listed above |
| CN(C)C(=O)Nc1cnccc1N [LF-14, 1,1-Dimethyl-3-(4-amino-3-pyridyl)-urea] | 8.2 | 9 | 12.4 min | 75.7 min | substantially no effect on the pentobarbital induced LRR | 17 | 17 | 0.04 mg/kg | 0.04 mg/kg | neuromuscular potency / antagonism (in words), in vivo [1, 7]: greatest both in vitro and in vivo; molar potency relative to 4-AP, in vivo [1, 8]: 9 times that of 4-AP; stimulatory effects on the central nervous system (in words) ([2]; rat, in vivo): no stimulatory effects on the central nervous system; neuromuscular potency / antagonism (in words), in vitro [3, 7]: greatest both in vitro and in vivo; molar potency relative to 4-AP, in vitro [3, 8]: 17 times that of 4-AP |
